According to patent US20190017026A1, “METHOD AND DEVICE FOR CONSERVING VIABLE AND FUNCTIONAL HUMAN POLYMORPHONUCLEAR NEUTROPHILS” (INSTITUT PASTEUR, priority 2014, published 2019):
Entries after “also recorded” stand apart in the source; their conditions may differ. Counter-ions that a name gives are not always drawn.

Key:
[1] = test system: human neutrophils; assay: Neutrophil survival rate by flow cytometry (Annexin V-/PI-) upon storage; format: cell-based; settings: for neutrophil survival rate (Annexin V-/PI-): 3 mM glucose, 32 μg/mL DMOG
Experimental: Neutrophils fractions with a >95% purity obtained by applying Method 1 or Method 2 were resuspended at a 5×10^6 cells/mL concentration in RPMI 1640 with L Glutamine and 25 mM Hepes (Gibco, Life Technologies), 10% of heat inactivated Foetal Bovine Serum (FBS) (Invitrogen, Gibco) and indicated concentrations of glucose (Sigma-Aldrich) and Dimethyloxalylglycine or DMOG (Cayman Chemical Company). For comparative experiments aiming at characterizing the role of oxygen on neutrophils survival, purified neutrophils (Method 1 or Method 2) were split in two identical fractions. One was stored at 37° C. with 5% CO2 under atmospheric conditions (20% O2 condition, +O2). The second one was stored at 37° C. in an anoxic chamber ([…], Don […]) under an atmosphere containing 90% N2, 5% CO2 and 5% H2 (0% O2 condition, -O2), during indicated time. Cell viability. For neutrophil survival analysis, human neutrophils (1×10^6) were washed twice in PBS and then resuspended in 1 ml of Annexin V binding Buffer. A 100 μl sample (1×10^5 cells) was stained with 5 μl of APC-Annexin V and 5 μl of Propidium iodide (PI) (0.5 μg/ml final concentration) as recommended by the manufacturer. At least 10^4 events were acquired for each condition on a FACSCaliburTM flow cytometer (BD Biosciences), and data were analyzed using CellQuestTM Pro Software (BD Biosciences). Viable cells were defined as Annexin V-/PI- quantifications. In this study, neutrophil survival rate was evaluated in various conditions by flow cytometry, by quantifying the proportion of viable (propidium iodide negative staining, PI-) and non-apoptotic (Annexin V negative staining, Annexin V-) cells.

[2] = test system: neutrophils; settings: normoxic conditions; cited from earlier work

O=C(O)CN(CCN(CC(=O)O)CC(=O)O)CC(=O)O [EDTA]
neutrophils survival as compared to citrate at blood collection ([1]; blood collected with EDTA instead of citrate): even better results

COC(=O)CNC(=O)C(=O)OC [DMOG, Dimethyloxalylglycine]
neutrophil survival rate (Annexin V-/PI-) ([1]; citrate (Method 2), anoxia, 20 h): 70±8% | neutrophil survival rate (Annexin V-/PI-) ([1]; citrate (Method 2), anoxia, 48 h): 49±2% | neutrophil survival rate (Annexin V-/PI-) ([1]; heparin (Method 1), absence of oxygen, 20 h storage): 54+10% | neutrophil survival rate (Annexin V-/PI-) ([1]; heparin (Method 1), absence of oxygen, 48 h storage): 14+10% | effect on neutrophil apoptosis [2]: decreases apoptosis

O=C(O)CC(O)(CC(=O)O)C(=O)O [citrate, sodium citrate]
neutrophils survival rate as compared to heparin as anticoagulant ([1]; blood collected with citrate, presence or absence of oxygen, 20 h and 48 h post purification): significant increase of neutrophils survival rate; also recorded: improved
